These results are taken from patent US20240277684A1, “BLOCKADE OF CHEMOKINE (C-C MOTIF) RECEPTOR 2 DURING FLUID RESUSCITATION” (University of South Florida, priority 2022, published 2024).

Assay [1] has as its system isolated rat mesenteric arteries. The assay can be described thus: Pressure myography with isolated rat mesenteric arteries. The following applies: 10 μM, 15 min pre-exposure, vs vehicle.
Assay [2] relates to hemorrhagic shock. The assay can be described thus: Example 1 second series: 30 min hemorrhagic shock, fluid resuscitation until t=300 min. The assay is classed as in vivo, rat. As to the method:
In vivo animal experiments. All procedures were performed in accordance with the National Institutes of Health Guidelines for Use of Laboratory Animals and were approved by the University of South Florida Institutional Animal Care and Use Committeee (IS00008139). Male Sprague-Dawley rats (300-400 g, Envigo, Indianapolis, IN, USA). were anesthetized with 1.7% isoflurane via nose-cone inhalation with the SomnoSuite anesthesia system (Kent Scientific, Torrington, CT, USA). […] The left femoral artery was isolated and cannulated with a 24-gauge peripheral intravenous catheter to allow for blood withdrawal, hemodynamic monitoring, drug administration, and fluid resuscitation. Hemodynamics were continuously monitored with the SurgivetV6400 blood pressure monitor (Med-Electronics, Beltsville, MD, USA), and blood pressures and heart rate were recorded at 1-10 min intervals. All animals were observed over a 10 min period to ensure hemodynamic stability before start of the experiments. All experiments were performed randomized in alternating order.
To test the effects of INCB3284 and Maraviroc after HS, a Wiggers fixed pressure hemorrhage and fluid resuscitation model was used as described (Babu F S, et al., Chemokine (C-X-C motif) receptor 4 regulates lung endothelial barrier permeability during resuscitation from hemorrhagic shock. Physiol Res 2019; 68(4):675-679; Nassoiy S P, et al., Effects of the Kv7 voltage-activated potassium channel inhibitor linopirdine in rat models of haemorrhagic shock. Clin Exp Pharmacol Physiol 2018; Nassoiy S P, et al., Kv7 voltage-activated potassium channel inhibitors reduce fluid resuscitation requirements after hemorrhagic shock in rats. J Biomed Sci 2017; 24(1):8; Bach H Ht, et al., Proteasome inhibition prolongs survival during lethal hemorrhagic shock in rats. J Trauma Acute Care Surg 2013; 74(2):499-507; Bach H Ht, et al., Chemokine (C-X-C motif) receptor 4 and atypical chemokine receptor 3 regulate vascular alpha(1)-adrenergic receptor function. Mol Med 2014; 20:435-447), with slight modifications. In brief, rats were hemorrhaged to a mean arterial blood pressure (MAP) of less than or equal to 30 mmHg for a period of 30 minutes. At the end of the HS period (t=30 min), animals were injected with either vehicle (1 mL LR) or drug in 1 mL LR, followed by fluid resuscitation with 1 mL bolus injections of LR to maintain a systolic blood pressure (SBP) of 90 mmHg or a MAP of 60 mmHg. To avoid fluid overload, bolus injections of LR were limited to 1 mL/min. In the first series of experiments, animals received 1 mL of LR (n=9), 1.1 μmol/kg (n=4) or 5.5 μmol/kg (n=5) INCB3284 in 1 mL LR or […] Maraviroc (n=3) in 1 mL LR at t=30 min. Animals were then resuscitated until t=90 min. At t=0, 15, 30, 60 and 90 min, blood samples were obtained, and plasma prepared. Samples were stored at −70° C. until further processing. At t=90 min, animals were euthanized (isoflurane inhalation, bilateral pneumothorax).
In the second series of experiments, animals received 1 mL of LR (n=10) or 5 μmol/kg INCB3284 in 1 mL LR (n=8) at t=30 min. Animals were resuscitated until t=300 min. Blood samples were obtained for arterial blood gas analyses and measurements of routine laboratory parameters at time points t=0, 30, 90, 150, 210, 270 and 300 min. Death was defined as asystole or loss of a pulse pressure. At the end of the experiments, surviving animals were euthanized as described before. In animals that survived until t=300 min, a gross necropsy was performed after euthanasia, and tissue from lung, small intestine, and colon was collected for measurements of wet-weight/dry-weight ratios.
(§1) Arterial blood gases and routine laboratory parameters. Arterial blood gases, electrolytes, creatinine, lactate, hematocrit and hemoglobin were analyzed using the Element point of care veterinary blood gas, electrolyte and critical care analyzer (Cuattro Veterinary USA, Loveland, CO, USA).
Wet-weight/dry-weight ratios.

Assay [3] deals with hemorrhagic shock. As to the kind of experiment: Example 2 Series 3: 60 min hemorrhagic shock, redosing, fluid resuscitation until t=300 min. The following applies: 5 μmol/kg at t=60 min and t=200 min. The assay is classed as in vivo, rat. As for the experimental part:
The hemorrhagic shock models were performed as described previously, with slight modifications (DeSantis A J, et al., The Chemokine (C-C Motif) Receptor 2 Antagonist INCB3284 Reduces Fluid Requirements and Protects From Hemodynamic Decompensation During Resuscitation From Hemorrhagic Shock. Crit Care Explor 2022;4(5):e0701; Bach H H, et al., Chemokine (C-X-C motif) receptor 4 and atypical chemokine receptor 3 regulate vascular alpha(1)-adrenergic receptor function. Mol Med 2014; 20:435-47; Nassoiy S P, et al., Effects of the Kv7 voltage activated potassium channel inhibitor linopirdine in rat models of hemorrhagic shock. Clin Exp Pharmacol Physiol 2018. doi: 10.1111/1440-1681.12958. PubMed PMID: 29702725; Bach H H, et al., Proteasome inhibition prolongs survival during lethal hemorrhagic shock in rats. J Trauma Acute Care Surg 2013; 74(2):499-507). In brief, anesthesia induction was performed with the animal and isoflurane-soaked gauze placed in a bell jar. After anesthesia induction, the animals were transferred to the operative field and anesthesia was maintained with 2.7% isoflurane administered via nose-cone inhalation with the SomnoSuite small animal anesthesia system (Kent Scientific Corporation, Torrington, CT, USA). […] Using a direct cut-down technique, the left femoral artery was isolated and cannulated with a 24-gauge peripheral intravenous catheter to allow for blood withdrawal, hemodynamic monitoring, drug administration, and fluid resuscitation. After catheter placement, isoflurane was decreased to 1.5%. Hemodynamics were continuously monitored with the Surgivet invasive blood pressure monitor (Med-Electronics, Beltsville, MD, USA). Blood pressures were recorded at 1-5 min intervals during the hemorrhage and resuscitation periods. Four subsequent series of experiments were performed. All experiments in each series were performed in alternating order. In all experiments animals were continuously monitored and remained under general anesthesia until euthanasia or death, as defined by asystole or loss of pulse pressure.
Series 3: Rats were hemorrhaged to a MAP of less than or equal to 30 mmHg for a period of 60 min, followed by fluid resuscitation until t=300 min as in Series 2. At the end of the hemorrhagic shock period (t=60 min) and at t=200 min, animals were injected with 1 mL of NS (n=7) or with 5 μmol/kg INCB3284 in 1 mL NS (n=7). At t=0 min, 60 min, 120 min, 180 min, 240 min and 300 min, blood samples (0.3 ml) were obtained and used for arterial blood gas analyses and measurements of routine laboratory parameters. At t=300 min, surviving animals were euthanized (5% isoflurane inhalation, bilateral pneumothorax).
as §1

Where [4] appears, read: 5 μmol/kg, animals that survived until t=300 min.
Setting [5] is: 5 μmol/kg, animals that survived until t=300 min, vs vehicle.

For `COc1ccc([C@]2(O)CC[C@@H](N3CC[C@@H](NC(=O)CNC(=O)c4cccc(C(F)(F)F)c4)C3)CC2)cn1` [INCB3284], in assay [1], the artery diameter result was “did not alter artery diameter” and the phenylephrine-induced vasoconstriction result was “did not alter artery diameter or affect phenylephrine-induced vasoconstriction”. In the assay on hemorrhagic shock [2] (setting [4]), the “colon wet weight/dry weight ratios, difference to vehicle” value is “did not reach statistical significance” and the “small bowel wet weight/dry weight ratios, difference to vehicle” value is “did not reach statistical significance”. In the assay with hemorrhagic shock [2] (setting [5]), the “lung wet weight/dry weight ratios” value is reported as “significantly reduced” and the “wet weight/dry weight ratios of all tissues combined” value is reported as “significantly reduced”. Also, the “animals demonstrating the beginning of hemodynamic decompensation” value in the assay on hemorrhagic shock [2] (5 μmol/kg, n=8, p<0.01 vs. vehicle) was “None”. For the same compound, the mortality (as a rule, the share of the test organisms that died) in the assay on hemorrhagic shock [2] (5 μmol/kg, until t=300 min, p<0.05) is 0%. Moreover, the median survival time in the assay on hemorrhagic shock [2] (5 μmol/kg, p<0.05 vs. vehicle) is > 300 min. For the same compound, the “reduction of average fluid requirements” value in the assay with hemorrhagic shock [2] (single dose 5 μmol/kg at t=30 min, until t=300 min, vs vehicle) amounted to 62±6%. Moreover, the average fluid requirements in the assay on hemorrhagic shock [2] (single dose 5 μmol/kg at t=30 min, until t=300 min, p<0.05) was 61.9 ± 10 mL/kg. In addition, the “steep increase in fluid requirements” value in the assay with hemorrhagic shock [3] is listed as “prevented”. In the assay with hemorrhagic shock [3] (at t=300 min, vs vehicle), the “reduction of total fluid requirements” value was 75%. Also, the total fluid requirements in the assay with hemorrhagic shock [3] (at t=300 min, p<0.05 vs. vehicle) amounted to 33 ± 16 mL/kg. In addition, in the assay with hemorrhagic shock [3] (p<0.05 vs. vehicle), the median survival time result is recorded as “undefined” and the mortality result is listed as “zero”.
